The text below walks through data of patent publication US20070191402A1, “Method of searching substrate having antidiabetic activity” (KYOWA HAKKO KOGYO CO., LTD., priority 2002, published 2007).

One assay addresses T1, p31 protein (Mus musculus, UniProt Q99LB2).
T1 construct: endogenous in cells; host or cells: MIN6 (murine pancreatic beta cell line), digitonin-solubilized membrane fraction
T1 sequence (Q99LB2 20-279 limits assumed): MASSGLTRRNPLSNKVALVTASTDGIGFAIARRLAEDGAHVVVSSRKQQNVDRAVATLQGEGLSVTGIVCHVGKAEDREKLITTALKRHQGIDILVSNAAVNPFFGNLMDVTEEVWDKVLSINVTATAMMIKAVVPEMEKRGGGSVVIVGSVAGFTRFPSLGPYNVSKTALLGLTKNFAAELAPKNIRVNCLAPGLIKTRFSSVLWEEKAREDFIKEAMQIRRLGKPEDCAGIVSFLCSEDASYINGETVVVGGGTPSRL
Briefly: Inhibition of binding of p31 protein from MIN6 solubilized membrane fraction to Compound 155-immobilized particle (SDS-PAGE). Conditions: 500 μmol/l tested substance, band on SDS-PAGE. Here is the method: The solubilized membrane fraction of MIN6 as prepared in Example 12 was 10-fold diluted with the buffer B. The compound represented by Compound No. 16 (hereinafter referred to as “Compound 16”) at 500 μmol/l was added to 1 ml of the resulting dilution and gently stirred at 4° C. for 2 hours. As a control, the solubilized membrane fraction of MIN6 without addition of the Compound 16 was 10-fold diluted with buffer C [20 mmol/l HEPES, pH 7.4, 2 mmol/l EDTA, 150 mmol/l NaCl, 1% digitonin, 1 mmol/l PMSF, 1 μg/ml aprotinin], and 1 ml of the resulting dilution was gently stirred at 4° C. for 2 hours. Then, a particle immobilizing a compound represented by Compound No. 155 (hereinafter referred to as “Compound 155-immobilized particle”) as prepared in Example 8 was added to the solubilized membrane fraction solution with addition of the Compound 16 and the solubilized membrane fraction solution without addition of any tested substance and gently stirred at 4° C. for 30 minutes. Subsequently, the resulting solutions were centrifuged (12,000 rpm, one minute, 4° C.) to precipitate the particle to thereby remove the supernatants. Then, 750 μl of the buffer C was added and stirred for 3 seconds, followed by centrifugation (12,000 rpm, one minute, 4° C.), to precipitate the particle to remove the supernatant. Then, 750 μl of buffer D [20 mmol/l HEPES, pH 7.4, 2 mmol/l EDTA] was added and stirred for 3 seconds, followed by centrifugation (12,000 rpm, one minute, 4° C.), to precipitate the particle to remove the supernatant. Subsequently, 30 μl of an SDS-polyacrylamide gel electrophoresis sample buffer containing β-mercaptoethanol was added to solubilize the protein binding to Compound 155-immobilized particle, followed by SDS-polyacrylamide gel electrophoresis. Through the purification from the cell extract solution by adding Compound 16 via Compound 155-immobilized particle, p31 protein in which its specific binding to Compound 155-immobilized particle was inhibited by the compound represented by Compound No. 16 was found. […]

The next assay relates to MIN6 cell. The assay is described as follows: Insulin secretion test using MIN6 cell. The assay is classed as cell-based, murine. Conditions: MIN6 cell; glucose 14.5 mmol/l or 8.4 mmol/l. On the procedure: Culturing MIN6 cell and testing insulin secretion using MIN6 cell were carried out according to the method described in Diabetorogia, 36, 1139-1145 (1993).
In other words, the influence of a compound on the insulin secretion activity in the presence of 14.5 mmol/l glucose was assessed by assaying the amount of insulin in the cell culture supernatant collected as follows.
The MIN6 cell cultured in a 24-well plate was washed twice with 1 ml of buffer A [119 mmol/l NaCl, 4.74 mmol/l KCl, 2.54 mmol/l CaCl2, 1.19 mmol/l MgSO4, 1.19 mmol/l KH2PO4, 10 mmol/l 2-[4-(2-hydroxylethyl)-1-piperadinyl]ethanesulfonic acid, 0.1% BSA, pH 7.3] containing 2 mmol/l glucose. Subsequently, the resulting cell was incubated in 1 ml of the buffer A containing 2 mmol/l glucose at 37° C. for 45 minutes. The culture supernatant was exchanged with the buffer A (1 ml) containing test compounds of various concentrations and 8.4 mmol/l glucose and incubated at 37° C. for 45 minutes to collect the culture supernatant.
Antibody-reactive insulin secreted in the culture supernatant was assayed by radioimmunoassay [Methods in Investigative and Diagnostic Endocrinology, Vol. 2A, 2B, North-Holland Publishing Co., Amsterdam (1973)] after the culture supernatant was diluted with phosphate buffer containing 1% BSA, 0.1% Tween 20, 0.12% EDTA 2Na, and 0.1% sodium azide. A standard curve was prepared by using human insulin as the standard substance, and individual insulin values were calculated on the basis of the curve.

As for `CCCN1C(=O)N2C[C@@H](Cc3ccccc3)N=C2c2[nH]c(C3CCCC3)nc21` [compound 16], the “inhibition of the binding of the p31 protein to the Compound 155-immobilized particle” value on p31 protein is given as “inhibits the binding of the p31 protein”; at p31 protein (listed as Compound No. 16) it was “inhibited”. In the assay on MIN6 cell, the “Insulin secretory activity (%)” value is listed as 83.2%.
